According to patent publication US9657081B2, “Inhibiting peptides derived from triggering receptor expressed on myeloid cells-1 (TREM-1) TREM-like transcript 1 (TLT-1) for treatment of cardiovascular diseases” (INSERM (Institut National de la Sante et de la Recherche …, priority 2013, dated 2017):

Columns and labels:
TREM-1 [1] = molecular target: T1, TREM-1 (Sus scrofa, UniProt Q6TYI6); assay: Mini-pig model of sepsis (peritonitis): sepsis-induced hypotension and cardiac dysfunction; type: in vivo, mini-pig (Sus scrofa domestica)
T1 construct: endogenous in cells; host or cells: living mini-pigs (in vivo)
T1 sequence (Q6TYI6 21-238): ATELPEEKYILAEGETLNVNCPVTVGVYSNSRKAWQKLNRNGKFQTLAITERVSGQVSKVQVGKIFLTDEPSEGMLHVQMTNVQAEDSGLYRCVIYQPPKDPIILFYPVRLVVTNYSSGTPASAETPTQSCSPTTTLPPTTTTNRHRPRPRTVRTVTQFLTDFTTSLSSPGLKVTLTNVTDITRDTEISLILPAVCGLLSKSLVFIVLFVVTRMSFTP
Protocol: Adult male mini-pigs (Sus scrofa domestica, Vietnamese pot-belied mini-pigs, 30-40 kg) were purchased from Elevage Ferry (Vosges, France). Before surgery, animals were fasted overnight with free access to water. Preanesthesia was performed through intramuscular administration of ketamine (10 mg/kg) and midazolam (0.1 mg/kg). Anesthesia was induced and maintained with intravenous pentobarbital (initial bolus: 10 mg/kg, and continuous administration 6-8 mg/kg/h), intermittent sufentanyl (10 μg), and pancuronium (4 mg) if necessary. Animals were mechanically ventilated (tidal volume 8 ml/kg, PEEP 5 cm H2O, FiO2 0.21, respiratory rate 14-16 breaths/min adjusted to maintain normocapnia). Left jugular vein was exposed and a triple-lumen line was inserted. Right jugular vein was also catheterized and a Swan-Ganz catheter was positioned allowing the continuous recording of cardiac output, SvO2, and right atria and pulmonary arterial pressures. A right carotid arterial catheter was inserted for continuous measurement of arterial pressure. A catheter in the bladder allowed urine collection.
After instrumentation, a midline laparotomy was performed to collect feces from the left colon: 1.5 g/kg were suspended in 200 mL of 0.9% NaCl and incubated at 38° C. for 2 hours. After surgery, a tube was left in place for the peritonitis induction and ascites drainage.
After surgery, animals were allowed to recover for 2 hours before baseline measurements (defined as ‘H0’). Normal saline was continuously administered (10 mL/kg/h) throughout the study. Body temperature was kept constant (±1° C.) using heating pads or cooling.
After baseline data collection (H0), peritonitis was induced by administration of autologous feces through the abdominal tube which was subsequently maintained clamped. After 2 hours (H2), animals were randomized to receive LR12 (LR12 group, n=6) or the vehicle (normal saline) alone (Control group, n=5). A bolus of 5 mg/kg (in 60 mL) was intravenously delivered over 30 minutes, then a 1 mg/kg/h (15 mL/h) infusion was started and lasted throughout the study period.
Animal care was then provided by an experienced intensive care physician with strict adhesion to the following guidelines throughout the study period:
i) Hemodynamic targets: the main objective was to maintain mean arterial pressure (MAP) above 85 mmHg. To achieve this goal and in addition to the maintenance 0.9% NaCl administration (7 mL/kg/h), hydroxyethyl starch (up to 20 mL/kg for the entire study period) (HES 130/0.4, Voluven®, Fresenius) was allowed provided that central venous pressure (CVP) and pulmonary artery occlusion pressure (PAOP) was <18 mmHg. When hydroxyethyl starch maximal volume was reached, a continuous infusion of norepinephrine was started up to 10 μg/kg/min.
Hemodynamic parameters were continuously monitored including MAP, mean pulmonary artery pressure (MPAP), right atrial pressure (RAP), cardiac output (CO), cardiac index (CI), and SvO2. Systemic oxygen delivery (DO2) and systemic oxygen uptake (VO2) were calculated by the Swan-Ganz monitor. Cardiac Power Index (W/m^2) was calculated as MAP×CI/451 (24).

TREM-1 [2] = assay: Rat model of myocardial ischemia-reperfusion, cardiac function by conductance catheter; type: in vivo; parameters: PRSW: unit not given beside the values; Emax / ESPVR: unit not given here; details: six weeks after ischemia-reperfusion; 3 mg/kg once a day for 5 days
Protocol: Adult male Wistar rats were subjected to myocardial ischemia-reperfusion and were randomly grouped (n=10) to receive repeated TREM-1- and TLT-1-derived peptides (3 mg/kg in 0.2 mL NaCl 0.9% once a day for 5 days) or scrambled-LR12 (3 mg/kg in 0.2 mL NaCl 0.9% once a day for 5 days). Six weeks after myocardial injury, cardiac function was investigated under anaesthesia by using a conductance catheter. Emax, ESPVR, and PRSW were higher in animals treated with TREM-1- and TLT-1-derived peptides than in control rats. All p<0.02 [controls versus LR12]).
Animals received same surgery than in permanent ischemia, but with reperfusion of ischemic area by release of the LAD ligation after 60 minutes of ischemia. The same protocol as described above was then applied.
(§1) Rats were anaesthetized with isoflurane and a 2 F high-fidelity micro-manometer catheter (SPR-407, Millar Institute, Houston, Tex., USA) was inserted into the LV via the right carotid artery. The Millar catheter was connected to a Harvard Data Acquisition System interfaced with a PC with the AcqKnowledge III software (ACQ 3.2).
To investigate the role of TREM-1- and TLT-1-derived peptides in a more relevant model of MI, we performed a transient coronary artery ligation (ischemia-reperfusion model: IR) in rats. After randomisation, animals were then imaged under anaesthesia (micro-TEP) and administered with TREM-1- and TLT-1-derived peptides (3 mg/kg daily for 5 days i.p.) or LR12-scrambled peptide. Imaging was then repeated at 6 weeks before we studied cardiac function by using a conductance catheter (Millar).

TREM-1 [3] = assay: Rat model of sepsis-induced cardiac dysfunction, intrinsic cardiac function by Millar catheter; type: in vivo; parameters: dpdtmax/Ved / PRSW: unit not given beside the values; FEVG / ESPVR: unit not given here
Excerpt: TREM-1- and TLT-1-derived peptides administration during rat model of sepsis-induced cardiac dysfunction is associated with an increase of intrinsic cardiac function measured by Millar catheter (FEVG, ESPVR, dpdtmax/Ved, PRSW).
as §1

How did the “animals in which norepinephrine was started by H12 to maintain MAP >85 mmHg” value (TREM-1 [1]; mini-pig peritonitis) turn out when “LQEEDAGEYGCM (listed as Homo sapiens) [TLT1-LR12]” was run?
The value was 1/6.

And the volume rescucitation (TREM-1 [1]; mini-pig peritonitis, 5 mg/kg bolus then 1 mg/kg/h i.v.)?
The volume rescucitation was 6500 ± 800 mL.

What about the progressive lactic acidosis (TREM-1 [1]; p=0.0005) of the same sequence?
Its progressive lactic acidosis is “largely attenuated”.

What about the “cardiac failure (cardiac index, cardiac power index, SvO2, DO2)” value (TREM-1 [1]; versus controls) of the same sequence?
Its value is “significant beneficial effects in attenuating cardiac failure”.

What about the “norepinephrine infusion rate needed to maintain blood pressure” value (TREM-1 [1]; versus controls) of the same sequence?
Its value is “significantly lower”.

And the ESPVR (TREM-1 [2])?
The ESPVR was 2.2 ± 0.1.

And the Emax (TREM-1 [2])?
The Emax was 4.8 ± 0.5.

And the PRSW (TREM-1 [2])?
The PRSW was 103 ± 5.

And the ESPVR (TREM-1 [3])?
Its ESPVR is 2.7 ± 0.1.

And the FEVG (TREM-1 [3])?
The FEVG was 77.2 ± 9.2.

And the PRSW (TREM-1 [3])?
The PRSW was 143 ± 7.

What about the dpdtmax/Ved (TREM-1 [3]) of the same sequence?
Its dpdtmax/Ved is 158 ± 18.
